# Assay results reported in patent publication US20230330080A1, “THERAPEUTIC TREATMENT USING PROTEIN KINASE C (PKC) INHIBITORS AND CYTOTOXIC AGENTS” (Cambridge Enterprise Limited, priority 2020, published 2023).
# Legend:
# Format in all cases: cell-based, human
# [1] = test system: CLL patient cells co-cultured with wild-type bone marrow derived stroma cells; assay: 1-hour PKC inhibitor pre-treatment with washout before cytotoxic agent; viability of CLL/stroma co-cultures by Annexin-V-FITC and DAPI flow cytometry
# Protocol: (§1) Approximately 20,000 wild-type bone marrow derived stroma cells were seeded into tissue culture wells and subsequently co-cultured with approximately 200,000 CLL patient cells. 24 hours thereafter, co-cultures were treated with 5 μM Enzastaurin for 1 hour at the indicated time-points prior to treatment with Fludarabine or Venetoclax (FIGS. 1A and 2A). Equivalent PKC-β-inhibitor exposure was maintained through removal and subsequent washout of Enzastaurin-treated co-cultures. Co-cultures were centrifuged at 500 g for 5 minutes, prior to removal of Enzastaurin containing media. Washout with cell culture media, was followed by an additional centrifugation at 500 g for 5 minutes, and the replacement of washout media with fresh media. Respective co-cultures were subsequently treated with either Fludarabine (2.5 μM) or Venetoclax (2.5 nM) for 24 hours. Cells were subsequently evaluated for viability using Annexin-V-FITC and DAPI, or 4′,6-diamidino-2-phenylindole, staining on a flow cytometer (FIGS. 1B and 2B).
# as §1, with “Bendamustine (FIG. 7).” for “Fludarabine or Venetoclax (FIGS. 1A and 2A).”, “Bendamustine (15” for “either Fludarabine (2.5”, “μM)” for “μM) or Venetoclax (2.5 nM)”, “cytometer.” for “cytometer (FIGS. 1B and 2B).”
# Approximately 20,000 wild-type bone marrow derived stroma cells were seeded into tissue culture wells and subsequently co-cultured with approximately 200,000 CLL patient cells. 24 hours thereafter, co-cultures were treated with 5 μM Ruboxistaurin for 1 hour at the indicated time-points prior to treatment with Venetoclax (FIG. 10A). Equivalent PKC-β-inhibitor exposure was maintained through removal and subsequent washout of Ruboxistaurin-treated co-cultures. Co-cultures were centrifuged at 500 g for 5 minutes, prior to removal of Ruboxistaurin containing media. Washout with cell culture media, was followed by an additional centrifugation at 500 g for 5 minutes, and the replacement of washout media with fresh media. Respective co-cultures were subsequently treated with Venetoclax (5 nM) for 24 hours. Cells were subsequently evaluated for viability using Annexin-V-FITC and DAPI, or 4′,6-diamidino-2-phenylindole, staining on a flow cytometer (FIG. 10B).
# [2] = test system: CLL patient cells co-cultured with wild-type bone marrow derived stroma cells; assay: Continuous PKC inhibitor exposure begun before cytotoxic agent; viability of CLL/stroma co-cultures by Annexin-V-FITC and DAPI flow cytometry
# Protocol: (§2) Approximately 20,000 wild-type bone marrow derived stroma cells were seeded into tissue culture wells and subsequently co-cultured with approximately 200,000 CLL patient cells. 24 hours thereafter, co-cultures were treated with 5 μM Enzastaurin at the indicated time-points prior to treatment with Venetoclax (FIG. 3A). Co-cultures were subsequently treated with Venetoclax (2.5 nM) for 24 hours. Cells were subsequently evaluated for viability using Annexin-V-FITC and DAPI staining on a flow cytometer (FIG. 3B).
# as §2, with “Bendamustine” for “Venetoclax”, “8).” for “3A).”, “Bendamustine (15 μM)” for “Venetoclax (2.5 nM)”, “8).” for “3B).”
# as §2, with “1” for “5”, “Midostaurin” for “Enzastaurin”, “Bendamustine” for “Venetoclax”, “8).” for “3A).”, “Bendamustine (15 μM)” for “Venetoclax (2.5 nM)”, “9).” for “3B).”
# [3] = test system: CLL patient cells co-cultured with wild-type bone marrow derived stroma cells; assay: Synergism of PKC-β inhibitors with Venetoclax in CLL/stroma co-culture (Compusyn, Bliss Independence model); conditions: PKC inhibitor 1.25, 2.5, 5 μM prior to Venetoclax 5, 10, 20 nM for 24 hours
# Protocol: Heatmaps reflect assessment values noted for respective compound combinations, with error (*) indicated below. A scale of 50 to −50, is applied to values, with 50 representing maximal synergism and −50 being maximal antagonism. Non-significant values are by default coloured as neither synergistic nor antagonistic;
# Approximately 20,000 wild-type bone marrow derived stroma cells were seeded into tissue culture wells and subsequently co-cultured with approximately 200,000 CLL patient cells. 24 hours thereafter, co-cultures were treated with Enzastaurin, Sotrastaurin or Midostaurin (1.25 μM, 2.5 μM, 5 μM) prior to treatment with Venetoclax. Co-cultures were subsequently treated with Venetoclax (5 nM, 10 nM, 20 nM) for 24 hours. Cells were subsequently evaluated for viability using flow cytometric analysis. Synergism was calculated using Compusyn Software (CRUK), within the Bliss Independence model (FIG. 5).
# [4] = 5 μM Enzastaurin for 1 hour, then Bendamustine 15 μM for 24 hours
# [5] = 5 μM Enzastaurin for 1 hour, then Fludarabine 2.5 μM for 24 hours
# [6] = 5 μM Enzastaurin for 1 hour, then Venetoclax 2.5 nM for 24 hours
# [7] = 5 μM Ruboxistaurin for 1 hour, then Venetoclax 5 nM for 24 hours
compound,measurement,setting,value
"Cn1cc(C2=C(c3cn(C4CCN(Cc5ccccn5)CC4)c4ccccc34)C(=O)NC2=O)c2ccccc21 [Enzastaurin, 3-(1-methylindol-3-yl)-4-[1-[1-(pyridin-2-ylmethyl)piperidin-4-yl]indol-3-yl]pyrrole-2,5-dione]",pre-dosing timepoints showing increased efficacy of Bendamustine,[1]; [4],2 to 6 h
same,pre-dosing timepoints with largest effect on efficacy of Bendamustine,[1]; [4],3 to 6 h
same,pre-dosing time points showing increased efficacy of Fludarabine,[1]; [5],2 to 6 h
same,pre-dosing time points with largest effect on efficacy of Fludarabine,[1]; [5],3 to 6 h
same,pre-dosing time points showing increased efficacy of Venetoclax,[1]; [6],2 to 6 h
same,pre-dosing time points with largest effect on efficacy of Venetoclax,[1]; [6],3 to 6 h
same,pre-dosing time giving greatest efficacy of Bendamustine,"[2]; continuous 5 μM Enzastaurin beginning 1, 2, 3, 4, 6, 8 hours prior to Bendamustine 15 μM for 24 hours",3 to 6 h
same,pre-dosing time giving greatest efficacy of Venetoclax,"[2]; continuous 5 μM Enzastaurin beginning 1, 2, 3, 4, 6, 12 hours prior to Venetoclax 2.5 nM for 24 hours",3 to 6 h
same,"combinatorial treatment effect with Venetoclax (synergism, Bliss model)",[3],synergistic effects
"CO[C@@H]1[C@H](N(C)C(=O)c2ccccc2)C[C@H]2O[C@]1(C)n1c3ccccc3c3c4c(c5c6ccccc6n2c5c31)C(=O)NC4 [Midostaurin, N-((5R,7R,8R,9S)-8-methoxy-9-methyl-16-oxo-6,7,8,9,15,16-hexahydro-5H,14H-17-oxa-4b,9a,15-triaza-5,9-methanodibenzo[b,h]cyclonona[jkl]cyclopenta[e]-as-indacen-7-yl)-N-methylbenzamide]",pre-dosing time giving greatest efficacy of Bendamustine,"[2]; continuous 1 μM Midostaurin beginning 1, 2, 3, 4, 6, 8 hours prior to Bendamustine 15 μM for 24 hours",3 to 8 h
CN(C)C[C@@H]1CCn2cc(c3ccccc32)C2=C(C(=O)NC2=O)c2cn(c3ccccc23)CCO1 [Ruboxistaurin],pre-dosing time points showing increased efficacy of Venetoclax,[1]; [7],1 to 6 h
same,pre-dosing time points with most significant effects on efficacy of Venetoclax,[1]; [7],1 to 4 h
"CN1CCN(c2nc(C3=C(c4c[nH]c5ccccc45)C(O)=NC3=O)c3ccccc3n2)CC1 [Sotrastaurin, 5-hydroxy-4-(1H-indol-3-yl)-3-[2-(4-methylpiperazin-1-yl)quinazolin-4-yl]-2H-pyrrol-2-one]","combinatorial treatment effect with Venetoclax (synergism, Bliss model)",[3],synergistic effects
